Non-standard residues stand in square brackets, D forms with d. Residues, ends and D or L forms follow the SMILES beside them.
Target: GPR54 (Homo sapiens, UniProt Q969F8)
Experiment: Inositol phosphate (IP) antagonism assay: inhibition of 10 nM kisspeptin-10 stimulation of IP in CHO/gpr-54 cells
Assay type: cell-based
Parameters: G. Vassart, Univ; Brussels
Settings: for Inhibition of IP stimulation by 10 nM Agonist: % Inhibition of Max / IC50: CHO cells, 10 nM kisspeptin-10; for IC50: unit inferred, given in M
Description: Inositol-3-phoshate Antagonistic Assay—Cell monolayers had 0.5 mls HEPES modified DMEM supplemented with […] for 30 mins at 37° C. to block IP3 breakdown. Cells were then stimulated with 0.25 mls 10 nM Kisspeptin-10 plus 0.25 mls of 10 nM Kisspeptin-10 or analogues (10 pM-10 uM) diluted at 1:1000 in the above media for 1 hr at 37° C., then in 10 mM Formic acid at 4° C. for 1 hr to lyse cells. Lysate was then transferred to plastic tubes containing 0.5 mls Dowex resin to bind the radioactive IP3 and the resin was then washed with 1 ml H2O. The resin was then washed with 60 mM NH4 formate/5 mM Sodium tetraborate followed by 1M NH4 formate/0.1M Formic acid to release the bound radiation. Then 800 μls of the radioactive solution were transferred to scintillation vials containing 2.5 mls scintillation fluid and radioactivity counted on a Beta counter for 60 seconds.
Chinese hamster ovary (CHO) cells stably-expressing the human gpr-54 receptor (CHO/gpr-54) were obtained from Prof. G. Vassart, Univ. Brussels. The cells were maintained in Dulbecco's modified Eagle's medium (DMEM; Sigma) supplemented with 10% fetal calf serum, 2% glutamine and 1% penicillin (10,000 units/ml)/streptomycin ([…]) at 37° C. in a humidified 5% CO2 atmosphere.
Experiments were repeated 3-5 times. IP production was plotted as mean values±SEM and analyzed using a Student's t-Test ([…]).

Sequence of GPR54 (Q969F8 whole entry): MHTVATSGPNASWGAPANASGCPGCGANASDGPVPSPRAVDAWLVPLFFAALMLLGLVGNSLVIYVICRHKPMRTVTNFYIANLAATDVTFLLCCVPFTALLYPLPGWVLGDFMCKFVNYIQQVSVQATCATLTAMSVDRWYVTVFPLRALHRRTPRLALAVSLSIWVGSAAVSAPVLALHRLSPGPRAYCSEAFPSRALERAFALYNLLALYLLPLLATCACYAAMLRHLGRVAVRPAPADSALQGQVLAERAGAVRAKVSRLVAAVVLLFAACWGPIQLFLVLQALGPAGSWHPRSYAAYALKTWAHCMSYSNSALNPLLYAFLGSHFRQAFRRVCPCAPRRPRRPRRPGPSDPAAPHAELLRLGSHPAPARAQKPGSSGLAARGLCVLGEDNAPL

| Structure (SMILES) | Inhibition of IP stimulation by 10 nM Agonist: % Inhibition of Max | IC50 | kisspeptin antagonist function (with N-terminal Antennapedia heptapeptide) |
| --- | --- | --- | --- |
| N=C(N)NCCC[C@H](NC(=O)[C@@H](Cc1c[nH]c2ccccc12)NC(=O)CNC(=O)[C@H](Cc1ccccc1)NC(=O)CNC(=O)[C@H](CC(N)=O)NC(=O)[C@H](Cc1c[nH]c2ccccc12)NC(=O)[C@H](CC(N)=O)NC(=O)[C@@H](N)Cc1ccc(O)cc1)C(=O)N[C@@H](Cc1ccccc1)C(N)=O [Peptide 210] (H-YNWNGFG[dW]RF-NH2) | 64% | < 0.1 nM | – |
| CC(C)C[C@H](NC(=O)CNC(=O)[C@@H](Cc1ccccc1)NC(=O)CNC(=O)[C@H](CC(N)=O)NC(=O)[C@H](Cc1c[nH]c2ccccc12)NC(=O)[C@H](CC(N)=O)NC(=O)[C@@H](N)Cc1ccc(O)cc1)C(=O)N[C@@H](CCCNC(=N)N)C(=O)N[C@@H](Cc1ccccc1)C(N)=O [Peptide 211] (H-YNWNG[dF]GLRF-NH2) | 73% | 1000 nM | – |
| CC(C)C[C@H](NC(=O)CNC(=O)[C@@H](Cc1c[nH]c2ccccc12)NC(=O)CNC(=O)[C@H](CC(N)=O)NC(=O)[C@H](Cc1c[nH]c2ccccc12)NC(=O)[C@H](CC(N)=O)NC(=O)[C@@H](N)Cc1ccc(O)cc1)C(=O)N[C@@H](CCCNC(=N)N)C(=O)N[C@@H](Cc1ccccc1)C(N)=O [Peptide 212] (H-YNWNG[dW]GLRF-NH2) | 68% | < 0.1 nM | – |
| CC(=O)N[C@@H](Cc1ccc(O)cc1)C(=O)N[C@@H](CC(N)=O)C(=O)N[C@@H](Cc1c[nH]c2ccccc12)C(=O)N[C@@H](CC(N)=O)C(=O)NCC(=O)N[C@@H](Cc1ccccc1)C(=O)NCC(=O)N[C@H](Cc1c[nH]c2ccccc12)C(=O)N[C@@H](CCCNC(=N)N)C(=O)N[C@@H](Cc1ccccc1)C(N)=O [Peptide 228] (Ac-YNWNGFG[dW]RF-NH2) | 58% | 50 nM | – |
| CC(=O)N[C@@H](Cc1ccc(O)cc1)C(=O)N[C@@H](CC(N)=O)C(=O)N[C@@H](Cc1c[nH]c2ccccc12)C(=O)N[C@@H](CC(N)=O)C(=O)N[C@H](Cc1c[nH]c2ccccc12)C(=O)N[C@@H](Cc1ccccc1)C(=O)NCC(=O)N[C@H](Cc1c[nH]c2ccccc12)C(=O)N[C@@H](CCCNC(=N)N)C(=O)N[C@@H](Cc1ccccc1)C(N)=O [Peptide 229] (Ac-YNWN[dW]FG[dW]RF-NH2) | 68% | 8000 nM | – |
| CC(=O)N[C@@H](Cc1ccc(O)cc1)C(=O)N[C@@H](CC(N)=O)C(=O)N[C@H](Cc1c[nH]c2ccccc12)C(=O)N[C@@H](CC(N)=O)C(=O)NCC(=O)N[C@@H](Cc1ccccc1)C(=O)NCC(=O)N[C@H](Cc1c[nH]c2ccccc12)C(=O)N[C@@H](CCCNC(=N)N)C(=O)N[C@@H](Cc1ccccc1)C(N)=O [Peptide 231] (Ac-YN[dW]NGFG[dW]RF-NH2) | 55% | 0.1 nM | – |
| CC(=O)N[C@H](Cc1ccc(O)cc1)C(=O)N[C@@H](CC(N)=O)C(=O)N[C@@H](Cc1c[nH]c2ccccc12)C(=O)N[C@@H](CC(N)=O)C(=O)NCC(=O)N[C@@H](Cc1ccccc1)C(=O)NCC(=O)N[C@@H](Cc1c[nH]c2ccccc12)C(=O)N[C@@H](CCCNC(=N)N)C(=O)N[C@@H](Cc1ccccc1)C(N)=O [Peptide 237] (Ac-[dY]NWNGFGWRF-NH2) | 0% | – | – |
| CC(=O)N[C@H](Cc1ccc(O)cc1)C(=O)N[C@@H](CC(N)=O)C(=O)N[C@@H](Cc1c[nH]c2ccccc12)C(=O)N[C@@H](CC(N)=O)C(=O)N[C@@H](CO)C(=O)N[C@@H](Cc1ccccc1)C(=O)NCC(=O)N[C@H](Cc1c[nH]c2ccccc12)C(=O)N[C@@H](CCCNC(=N)N)C(=O)N[C@@H](Cc1ccccc1)C(N)=O [Peptide 238] (Ac-[dY]NWNSFG[dW]RF-NH2) | 0% | – | – |
| CC(=O)N[C@H](Cc1ccc(O)cc1)C(=O)N[C@H](CC(N)=O)C(=O)N[C@@H](Cc1c[nH]c2ccccc12)C(=O)N[C@@H](CC(N)=O)C(=O)N[C@@H](CO)C(=O)N[C@@H](Cc1ccccc1)C(=O)NCC(=O)N[C@@H](Cc1c[nH]c2ccccc12)C(=O)N[C@@H](CCCNC(=N)N)C(=O)N[C@@H](Cc1ccccc1)C(N)=O [Peptide 239] (Ac-[dY][dN]WNSFGWRF-NH2) | 0% | – | – |
| CC(=O)N[C@H](Cc1c[nH]c2ccccc12)C(=O)N[C@@H](CC(N)=O)C(=O)N[C@@H](Cc1c[nH]c2ccccc12)C(=O)N[C@@H](CC(N)=O)C(=O)NCC(=O)N[C@@H](Cc1ccccc1)C(=O)NCC(=O)N[C@H](Cc1c[nH]c2ccccc12)C(=O)N[C@@H](CCCNC(=N)N)C(=O)N[C@@H](Cc1ccccc1)C(N)=O [Peptide 243] (Ac-[dW]NWNGFG[dW]RF-NH2) | 55% | 10 nM | – |
| CC(=O)N[C@H](Cc1ccccc1)C(=O)N[C@@H](CC(N)=O)C(=O)N[C@@H](Cc1c[nH]c2ccccc12)C(=O)N[C@@H](CC(N)=O)C(=O)NCC(=O)N[C@@H](Cc1ccccc1)C(=O)NCC(=O)N[C@H](Cc1c[nH]c2ccccc12)C(=O)N[C@@H](CCCNC(=N)N)C(=O)N[C@@H](Cc1ccccc1)C(N)=O [Peptide 244] (Ac-[dF]NWNGFG[dW]RF-NH2) | 60% | 10 nM | – |
| CC(=O)N[C@H](Cc1ccc(O)cc1)C(=O)N[C@@H](CC(N)=O)C(=O)N[C@@H](Cc1c[nH]c2ccccc12)C(=O)N[C@@H](CC(N)=O)C(=O)NCC(=O)N[C@H](Cc1c[nH]c2ccccc12)C(=O)NCC(=O)N[C@H](Cc1c[nH]c2ccccc12)C(=O)N[C@@H](CCCNC(=N)N)C(=O)N[C@@H](Cc1ccccc1)C(N)=O [Peptide 245] (Ac-[dY]NWNG[dW]G[dW]RF-NH2) | 66% | – | – |
| CC(=O)N[C@H](C)C(=O)N[C@@H](CC(N)=O)C(=O)N[C@@H](Cc1c[nH]c2ccccc12)C(=O)N[C@@H](CC(N)=O)C(=O)NCC(=O)N[C@H](Cc1c[nH]c2ccccc12)C(=O)NCC(=O)N[C@H](Cc1c[nH]c2ccccc12)C(=O)N[C@@H](CCCNC(=N)N)C(=O)N[C@@H](Cc1ccccc1)C(N)=O [Peptide 246] (Ac-[dA]NWNG[dW]G[dW]RF-NH2) | 80% | 50 nM | – |
| CC(=O)N[C@H](C)C(=O)N[C@@H](CC(N)=O)C(=O)N[C@@H](Cc1c[nH]c2ccccc12)C(=O)N[C@@H](CC(N)=O)C(=O)N[C@@H](CO)C(=O)N[C@@H](Cc1ccccc1)C(=O)NCC(=O)N[C@H](Cc1c[nH]c2ccccc12)C(=O)N[C@@H](CCCNC(=N)N)C(=O)N[C@@H](Cc1ccccc1)C(N)=O [Peptide 247] (Ac-[dA]NWNSFG[dW]RF-NH2) | 80% | – | – |
| CC(=O)N[C@H](C)C(=O)N[C@@H](CC(N)=O)C(=O)N[C@@H](Cc1c[nH]c2ccccc12)C(=O)N[C@@H](CC(N)=O)C(=O)NCC(=O)N[C@@H](Cc1ccccc1)C(=O)NCC(=O)N[C@@H](Cc1c[nH]c2ccccc12)C(=O)N[C@@H](CCCNC(=N)N)C(=O)N[C@@H](Cc1ccccc1)C(N)=O [Peptide 248] (Ac-[dA]NWNGFGWRF-NH2) | 64% | – | – |
| CSCC[C@H](NC(=O)[C@H](CCCNC(=N)N)NC(=O)[C@H](CCCNC(=N)N)NC(C)=O)C(=O)N[C@@H](CCCCN)C(=O)N[C@@H](Cc1c[nH]c2ccccc12)C(=O)N[C@@H](CCCCN)C(=O)N[C@@H](CCCCN)C(=O)N[C@@H](Cc1ccc(O)cc1)C(=O)N[C@H](C)C(=O)N[C@@H](CC(N)=O)C(=O)N[C@@H](Cc1c[nH]c2ccccc12)C(=O)N[C@@H](CC(N)=O)C(=O)NCC(=O)N[C@@H](Cc1ccccc1)C(=O)NCC(=O)N[C@H](Cc1c[nH]c2ccccc12)C(=O)N[C@@H](CCCNC(=N)N)C(=O)N[C@@H](Cc1ccccc1)C(N)=O [Peptide 271, ac.R-R-M-K-W-K-K-Y-(D)A-N-W-N-G-F-G-(D)W-R-F.z] (Ac-RRMKWKKY[dA]NWNGFG[dW]RF-NH2) | 57% | 5 nM | retains kisspeptin antagonist function |
| CC(=O)N[C@H](C)C(=O)N[C@@H](CC(N)=O)C(=O)N[C@@H](Cc1c[nH]c2ccccc12)C(=O)N[C@@H](CC(N)=O)C(=O)N1CCC[C@H]1C(=O)N[C@@H](Cc1ccccc1)C(=O)NCC(=O)N[C@H](Cc1c[nH]c2ccccc12)C(=O)N[C@@H](CCCNC(=N)N)C(=O)N[C@@H](Cc1ccccc1)C(N)=O [Peptide 274] (Ac-[dA]NWNPFG[dW]RF-NH2) | 73% | 0.1 nM | – |
| CC(=O)N[C@H](C)C(=O)N[C@@H](CC(N)=O)C(=O)N[C@@H](Cc1c[nH]c2ccccc12)C(=O)N[C@@H](CC(N)=O)C(=O)N1CCC[C@@H]1C(=O)N[C@@H](Cc1ccccc1)C(=O)NCC(=O)N[C@H](Cc1c[nH]c2ccccc12)C(=O)N[C@@H](CCCNC(=N)N)C(=O)N[C@@H](Cc1ccccc1)C(N)=O [Peptide 275] (Ac-[dA]NWN[dP]FG[dW]RF-NH2) | 44% | > 100 nM | – |
| CC(=O)N[C@H](C)C(=O)N[C@@H](CC(N)=O)C(=O)N[C@@H](Cc1c[nH]c2ccccc12)C(=O)N[C@@H](CC(N)=O)C(=O)NCC(=O)N[C@@H](Cc1ccccc1)C(=O)NCC(=O)N[C@H](CC(C)C)C(=O)N[C@@H](CCCNC(=N)N)C(=O)N[C@@H](Cc1ccccc1)C(N)=O [Peptide 276] (Ac-[dA]NWNGFG[dL]RF-NH2) | 65% | – | – |

Reference: patent US8916681B2, “Compound, use and method” (Medical Research Council, priority 2007, dated 2014)
